Columns and labels:
Test in all cases: relative viability (nuclei count vs DMSO), 5 days (fraction); higher = more cells survive
[1] = compound: CS(=O)(=O)c1ccc(C(=O)Nc2ccc(Cl)c(-c3ccccn3)c2)c(Cl)c1 [Vismodegib] + Cc1cc(Nc2cc(N3CCN(C)CC3)nc(Sc3ccc(NC(=O)C4CC4)cc3)n2)n[nH]1 [Tozasertib] (partner 0.1 µM)
In short: (§1)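 For relative viability, nuclei counts in treated wells were divided by those in vehicle wells. Lung cancer cell lines had been pin-tool dosed in 1536-well plates the day after seeding and cultured for 5 days, then fixed and stained in one step (final 0.05% Triton X-100, 1% formaldehyde, 1 ug/ml Hoechst) and imaged at 4×. Doses were one drug alone or a fixed anchor-drug dose plus five library-drug doses (not always all listed) in √10 steps, and values are duplicate-plate medians.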

[2] = compound: N#CC[C@H](C1CCCC1)n1cc(-c2ncnc3[nH]ccc23)cn1 [Ruxolitinib] + CC(=O)c1c(C)c2cnc(Nc3ccc(N4CCNCC4)cn3)nc2n(C2CCCC2)c1=O [Palbociclib] (partner 0.5 µM)
In short: as §1

[3] = compound: N#CC[C@H](C1CCCC1)n1cc(-c2ncnc3[nH]ccc23)cn1 [Ruxolitinib] + Cc1nc(NC(=O)N2CCC[C@H]2C(N)=O)sc1-c1ccnc(C(C)(C)C(F)(F)F)c1 [Alpelisib] (partner 2 µM)
In short: as §1

[4] = compound: N#CC[C@H](C1CCCC1)n1cc(-c2ncnc3[nH]ccc23)cn1 [Ruxolitinib] + Nc1ncn([C@H]2C[C@H](O)[C@@H](CO)O2)c(=O)n1 [Decitabine] (partner 2 µM)
In short: as §1

Cell Line | relative viability ([1]; first compound 0.08 µM) | relative viability ([1]; first compound 0.253 µM) | relative viability ([1]; first compound 0.8 µM) | relative viability ([1]; first compound 2.53 µM) | relative viability ([1]; first compound 8 µM) | relative viability ([2]; first compound 0.08 µM) | relative viability ([2]; first compound 0.253 µM) | relative viability ([2]; first compound 0.8 µM) | relative viability ([2]; first compound 2.53 µM) | relative viability ([2]; first compound 8 µM) | relative viability ([3]; first compound 0.08 µM) | relative viability ([3]; first compound 0.253 µM) | relative viability ([3]; first compound 0.8 µM) | relative viability ([3]; first compound 2.53 µM) | relative viability ([3]; first compound 8 µM) | relative viability ([4]; first compound 0.08 µM) | relative viability ([4]; first compound 0.253 µM) | relative viability ([4]; first compound 0.8 µM) | relative viability ([4]; first compound 2.53 µM) | relative viability ([4]; first compound 8 µM)
NCI-H647 | 0.253 | 0.205 | 0.265 | 0.188 | 0.227 | 0.523 | 0.443 | 0.44 | 0.344 | 0.346 | 1.33 | 1.11 | 1.15 | 0.941 | 0.643 | 0.45 | 0.351 | 0.433 | 0.28 | 0.344
NCI-H322M | 0.483 | 0.485 | 0.503 | 0.473 | 0.443 | 0.503 | 0.488 | 0.536 | 0.645 | 0.563 | 0.901 | 0.844 | 0.873 | 0.802 | 1.01 | 0.718 | 0.702 | 0.744 | 0.693 | 0.889
NCI-H358 | 0.0964 | 0.104 | 0.104 | 0.103 | 0.0976 | 0.167 | 0.125 | 0.16 | 0.14 | 0.127 | 0.787 | 0.913 | 0.867 | 0.65 | 0.554 | 0.226 | 0.202 | 0.213 | 0.169 | 0.194
LK-2 | 0.194 | 0.167 | 0.167 | 0.17 | 0.165 | 0.863 | 0.696 | 0.787 | 0.701 | 0.686 |  | 0.992 | 1.27 | 0.971 | 1.43 | 0.228 | 0.237 | 0.35 | 0.308 | 0.273
NCI-H1993 | 0.529 | 0.548 | 0.584 | 0.632 | 0.593 | 0.519 | 0.552 | 0.807 | 0.68 | 0.707 | 0.705 | 0.71 | 0.678 | 0.722 | 0.675 | 0.582 | 0.53 | 0.595 | 0.534 | 0.59
A-427 | 0.233 | 0.193 | 0.22 | 0.196 | 0.21 | 0.557 | 0.516 | 0.556 | 0.499 | 0.464 | 1.09 | 1.03 | 1.07 | 1.06 | 1.03 | 0.566 | 0.558 | 0.579 | 0.605 | 0.58
NCI-H2347 | 0.589 | 0.574 | 0.554 | 0.485 | 0.574 | 0.425 | 0.395 | 0.42 | 0.43 | 0.478 | 0.949 | 0.999 | 1.17 | 0.984 | 1.19 | 0.614 | 0.602 | 0.65 | 0.563 | 0.62
BEN | 0.545 | 0.555 | 0.513 | 0.605 | 0.466 | 0.488 | 0.456 | 0.504 | 0.503 | 0.51 | 0.944 | 0.965 | 1.16 | 0.956 | 1.08 | 0.5 | 0.699 | 0.816 | 0.592 | 0.773
NCI-H23 | 0.362 | 0.425 | 0.386 | 0.297 | 0.301 | 0.538 | 0.485 | 0.604 | 0.426 | 0.34 | 0.611 | 0.726 | 0.801 | 0.72 | 0.535 | 0.311 | 0.337 | 0.359 | 0.275 | 0.305
LU99A | 0.301 | 0.248 | 0.239 | 0.268 | 0.269 | 0.443 | 0.387 | 0.411 | 0.369 | 0.332 | 0.532 | 0.456 | 0.523 | 0.523 | 0.412 | 0.918 | 0.938 | 0.886 | 0.639 | 0.836
ABC-1 | 0.15 | 0.153 | 0.182 | 0.184 | 0.158 |  | 0.831 | 0.652 | 0.808 | 0.754 | 1.08 | 1.09 | 1.17 | 1.03 | 0.855 |  | 1.03 | 1.38 | 1.21 | 1.21
SW 1573 | 0.185 | 0.206 | 0.16 | 0.13 | 0.19 | 0.436 | 0.382 | 0.411 | 0.546 | 0.299 | 0.926 | 0.712 | 0.984 | 0.558 | 0.687 | 0.547 | 0.512 | 0.667 | 0.377 | 0.518
NCI-H2009 | 0.727 | 0.674 | 0.834 | 0.817 | 0.733 | 0.289 | 0.216 | 0.241 | 0.154 | 0.139 | 1.11 | 1.17 | 1.12 | 1.01 | 0.903 | 0.361 | 0.375 | 0.364 | 0.369 | 0.317
HCC-15 | 0.415 | 0.444 | 0.386 | 0.399 | 0.424 | 0.708 | 0.718 | 0.759 | 0.663 | 0.635 | 0.844 | 0.875 | 0.923 | 0.812 | 0.73 | 0.677 | 0.553 | 0.7 | 0.55 | 0.48
EPLC-272H | 0.254 | 0.273 | 0.34 | 0.348 | 0.148 | 0.285 | 0.331 | 0.38 | 0.365 | 0.412 | 0.841 | 0.903 | 1.07 | 1.06 | 1.01 | 0.408 | 0.367 | 0.439 | 0.414 | 0.36
HCC-78 | 0.352 | 0.454 | 0.502 | 0.304 | 0.41 | 0.422 | 0.481 | 0.431 | 0.507 | 0.492 | 0.289 | 0.249 | 0.308 | 0.277 | 0.337 | 0.598 | 0.607 | 0.677 | 0.527 | 0.661

— the supplement of paper PMC10307832
